Key:
SARS-CoV [1] = experiment: Inhibition of SARS coronavirus-induced cytopathogenicity in Vero E6 cells at 10 uM; format: functional; settings: Severe acute respiratory syndrome-related coronavirus
SARS-CoV [2] = experiment: Inhibition of SARS coronavirus-induced cytopathogenicity in Vero E6 cells at 20 uM; format: functional; settings: Severe acute respiratory syndrome-related coronavirus
[3] = Selectivity index, Ratio of CC50 for Vero E6 cells to EC50 for SARS coronavirus; format: functional
SARS-CoV [4] = experiment: Inhibition of SARS virus-induced cytopathogenicity in Vero E6 cells at 3.3 uM; format: functional; settings: Severe acute respiratory syndrome-related coronavirus
SARS-CoV [5] = experiment: Antiviral activity against SARS coronavirus in Vero E6 cells assessed as inhibition of viral replication by ELISA; format: functional, organism-based; settings: Severe acute respiratory syndrome-related coronavirus
[6] = Cytotoxicity against Vero E6 cells by MTT assay; format: cell-based; settings: chlorocebus sabaeus
SARS-CoV [7] = experiment: Inhibition of SARS virus-induced cytopathogenicity in Vero E6 cells at 1 uM; format: functional; settings: Severe acute respiratory syndrome-related coronavirus
Replicase polyprotein 1a = Replicase polyprotein 1a (Severe acute respiratory syndrome-related coronavirus, UniProt P0C6U8); experiment: Inhibition of SARS coronavirus 3CL protease

Row | Structure (SMILES) | inhibition at 10 µM (SARS-CoV [1]) | inhibition at 20 µM (SARS-CoV [2]) | Ratio CC50/EC50 [3] | inhibition at 3.3 µM (SARS-CoV [4]) | EC50 (SARS-CoV [5]) | CC50 [6] | inhibition at 1 µM (SARS-CoV [7]) | IC50 (Replicase polyprotein 1a) | Ki (Replicase polyprotein 1a)
1 | COc1cc(C2c3cc(OC(=O)c4ccccc4)c(OC)cc3C[C@@H](CO)[C@@H]2CO)ccc1OC(=O)c1ccccc1 (stereo not given in full) | < 25% | < 25% |  |  |  |  |  |  | 
2 | CC(=O)Oc1cc2c(cc1C(C)C)C=C[C@H]1C(C)(C)[C@@H](OC(C)=O)CC[C@]21C | 25% | < 25% | 193 | 25% | 1.57 µM | 303 µM |  |  | 
3 | CC(C)C1=C(O)C(=O)C2=C(C=C[C@H]3C(C)(C)CCC[C@]23C)C1=O | 25% | < 25% | 16.2 |  | 5.55 µM | 89.7 µM |  |  | 
4 | CC(C)C1=C[C@]2(O)CC[C@H]3C(C)(C)CCC[C@]3(C)C2=CC1=O | < 25% | < 25% | >510 | 50% | 1.47 µM | > 750 µM |  |  | 
5 | COc1c(C(C)C)cc2c(c1O)[C@@]1(C)CCCC(C)(C)[C@@H]1C[C@@H]2O | < 25% | < 25% | 111 |  | 1.15 µM | 127 µM |  |  | 
6 | C[C@@H]1CC[C@H]2[C@@](C)(CO)[C@H]3C[C@@]12CC[C@@]3(C)O | 25% | < 25% |  | 50% | > 10 µM | > 750 µM |  |  | 
7 | CC(C)c1ccc2c(c1)C(=O)C[C@H]1C(C)(C)CCC[C@]21C | < 25% | < 25% | 76.3 |  | 4 µM | 305 µM |  |  | 
8 | CC1=C[C@@H]2[C@@H](CC1)[C@](C)(O)CC[C@H]2C(C)C | 25% | < 25% | 17.3 | 25% | 4.44 µM | 76.8 µM | 50% |  | 
9 | C=C(C)[C@@H]1CC[C@]2(C(=O)O)CC[C@]3(C)[C@H](CC[C@@H]4[C@@]5(C)CC[C@H](O)C(C)(C)[C@@H]5CC[C@]43C)[C@@H]12 [BETULINIC ACID] | 25% | < 25% | <15 | 50% | > 10 µM | 150 µM |  | 10 µM | 8.2 µM
10 | C=C(C)[C@@H]1CC[C@]2(C(=O)O)CC[C@]3(C)[C@H](CC[C@@H]4[C@@]5(C)CCC(=O)C(C)(C)[C@@H]5CC[C@]43C)[C@@H]12 [BETUNOLIC ACID] | < 25% | < 25% | 180 |  | 0.63 µM | 112 µM |  | > 100 µM | 
11 | C=C[C@@]1(C)CC(=O)[C@]2(O)[C@@]3(C)[C@@H](O)CCC(C)(C)[C@@H]3[C@H](O)[C@H](OC(C)=O)[C@@]2(C)O1 [COLFORSIN] | 25% | < 25% | 89.8 | 50% | 7.5 µM | 674 µM |  |  | 
12 | COc1c(C(C)C)cc2c(c1O)[C@@]1(C)CCCC(C)(C)[C@@H]1CC2=O [CRYPTOJAPONOL] | < 25% | < 25% | <7.9 |  | > 10 µM | 78.5 µM |  |  | 
13 | COc1cc(/C=C/C(=O)CC(=O)/C=C/c2ccc(O)c(OC)c2)ccc1O [CURCUMIN] | 50% | 25% |  |  | > 10 µM | > 250 µM |  | 40 µM | 
14 | CC(C)c1cc2c(cc1O)[C@@]1(C)CCCC(C)(C)[C@@H]1CC2 [FERRUGINOL] | < 25% | < 25% | 58 | 25% | 1.39 µM | 80.4 µM |  |  | 
15 | O=C1OC[C@H](Cc2ccc3c(c2)OCO3)[C@H]1Cc1ccc2c(c1)OCO2 [HINOKININ] | 25% | < 25% |  | 25% | > 10 µM | > 750 µM | 50% | > 100 µM | 
16 | C=CCc1ccc(O)c(-c2ccc(O)c(CC=C)c2)c1 [HONOKIOL] | < 25% | < 25% | 13.7 | 25% | 6.5 µM | 88.9 µM |  |  | 
17 | C=CCc1ccc(O)c(-c2cc(CC=C)ccc2O)c1 [MAGNOLOL] | < 25% | < 25% | 18 | 50% | 3.8 µM | 68.3 µM |  |  | 
18 | O=C(Nc1ccc([N+](=O)[O-])cc1Cl)c1cc(Cl)ccc1O [NICLOSAMIDE] | 25% | < 25% | >221 | 25% | < 0.1 µM | 22.1 µM | 50% | 40 µM | 
19 | C=C1CC[C@@H]2[C@](C)(CCC[C@]2(C)C(=O)O)[C@H]1CCC1=CCOC1=O [PINUSOLIDIC ACID] | < 25% | < 25% | >159 |  | 4.71 µM | > 750 µM |  |  | 
20 | O=C1OC[C@H](Cc2ccc3c(c2)OCO3)/C1=C\c1ccc2c(c1)OCO2 [SAVININ] | < 25% | < 25% | >667 |  | 1.13 µM | > 750 µM |  | 25 µM | 9.1 µM
21 | CC(C)c1cc2c(cc1O)[C@@]1(C)CCCC(C)(C)[C@@H]1CC2=O [SUGIOL] | < 25% | < 25% |  |  |  |  |  |  | 
22 | CC(C)[C@@H]1NC(=O)[C@H](C)OC(=O)[C@@H](C(C)C)NC(=O)[C@@H](C(C)C)OC(=O)[C@H](C(C)C)NC(=O)[C@H](C)OC(=O)[C@@H](C(C)C)NC(=O)[C@@H](C(C)C)OC(=O)[C@H](C(C)C)NC(=O)[C@H](C)OC(=O)[C@@H](C(C)C)NC(=O)[C@@H](C(C)C)OC1=O [VALINOMYCIN] | 25% | < 25% | 41.4 | 25% | 1.63 µM | 67.5 µM | 50% |  | 

Source: ChEMBL document CHEMBL1148729, “Specific plant terpenoids and lignoids possess potent antiviral activities against severe acute respiratory syndrome coronavirus” (J Med Chem, 2007)
